Patent US9278962B2 (Cytokinetics, Inc., priority 2011, dated 2016)

These molecules were tested on rabbit skeletal myofibrils (approximately 90% fast fibers) (assay: Activation of fast skeletal myofibrils (PUMA coupled-enzyme ATPase assay, AC1.4)). Conditions: Table 2; concentration at which the compound increased enzymatic activity by 40%; calcium at pCa25.
Assay type: biochemical
Procedure: Rabbit skeletal myofibrils were prepared based upon the method of Herrmann et al. (Biochem. 32(28):7255-7263(1993). Myofibrils were prepared from rabbit psoas muscle purchased from Pel-Freez Biologicals (Arkansas) within 2 days of ordering, stored on ice. Minced muscle was homogenized in 10 volumes of ice-cold “standard” buffer (50 mM Tris, pH 7.4, 0.1 M potassium acetate, 5 mM KCl, 2 mM DTT, 0.2 mM PMSF, 10 μM leupeptin, 5 μM pepstatin, and 0.5 mM sodium azide) containing 5 mM EDTA and 0.5% Triton X-100 using an Omni-Macro homogenizer. Myofibrils were recovered by low speed centrifugation (3000 rpm for 10 minutes) and washed 2 times in the Triton X-100 containing buffer to ensure removal of cellular membrane. Following the Triton washes, myofibrils were washed 3 times in “standard” buffer containing 2 mM magnesium acetate. A final wash in assay buffer (12 mM PIPES, pH 6.8, 60 mM KCl, 1 mM DTT) was performed and brought to 10% sucrose for flash freezing in liquid nitrogen and storage at −80° C.
Fast fiber activators were identified by measuring the enzymatic activity of muscle myofibril preparations using the proprietary PUMA™ (see, e.g., U.S. Pat. Nos. 6,410,254, 6,743,599, 7,202,051, and 7,378,254) assay system. Myofibril preparations consisted of rabbit skeletal muscle (approximately 90% fast fibers) that had been mechanically homogenized and washed with a detergent (triton X-100) to remove cellular membranes. This preparation retained all of the sarcomeric components in a native conformation and the enzymatic activity was still regulated by calcium. Compounds were tested using a myofibril suspension and a level of calcium sufficient to increase enzymatic activity of the myofibrils to 25% of their maximal rate (termed pCa25). Enzymatic activity was tracked via a pyruvate kinase and lactate dehydrogenase-coupled enzyme system. This assay regenerates myosin-produced ADP into ATP by oxidizing NADH, producing an absorbance change at 340 nm. The buffering system was 12 mM Pipes, 2 mM MgCl2, 1 mM DTT at pH 6.8 (PM12 buffer).
Using procedures similar to those described herein, utilizing reagents and intermediates commercially available (e.g., Sigma-Aldrich) or readily synthesized by one of skill in the art, the compounds in Table 2, Table 3, Table 4 and Table 5 were synthesized, characterized and tested. AC1.4 values were determined according to the procedure described in Example 6, and the reported median AC1.4 values are as follows: A=<1 uM; B=1-10 uM; C=10-20 uM; D=>20 uM.

Row | Mean AC1.4 | SMILES
1 | C (C=10-20 uM) | CC(C)(CNc1nc(CN2CCN(S(C)(=O)=O)CC2)ns1)c1ccc(F)cc1 [1-[(5-{[2-(4-fluorophenyl)-2-methylpropyl]amino}(1,2,4-thiadiazol-3-yl))methyl]-4-(methylsulfonyl)piperazine]
2 | B (B=1-10 uM) | CC(C)(CNc1nc(-c2cncc(C#N)c2)ns1)c1ccc(F)cc1 [5-(5-{[2-(4-fluorophenyl)-2-methylpropyl]amino}-1,2,4-thiadiazol-3-yl)pyridine-3-carbonitrile]
3 | D (D=>20 uM) | CC(C)(CNc1nc(CCC(=O)O)ns1)c1ccc(F)cc1 [3-(5-{[2-(4-fluorophenyl)-2-methylpropyl]amino}-1,2,4-thiadiazol-3-yl)propanoic acid]
4 | C (C=10-20 uM) | CC(=O)OCC(=O)NCCCc1nsc(NCC(C)(C)c2ccc(F)cc2)n1 [{N-[3-(5-{[2-(4-fluorophenyl)-2-methylpropyl]amino}-1,2,4-thiadiazol-3-yl)propyl]carbamoyl}methyl acetate]
5 | B (B=1-10 uM) | COc1cccc(Cc2nsc(NCCc3ccc(Cl)c(Cl)c3)n2)c1 [[2-(3,4-dichlorophenyl)ethyl]{3-[(3-methoxyphenyl)methyl](1,2,4-thiadiazol-5-yl)}amine]
6 | D (D=>20 uM) | CC(C)(C)OC(=O)N1CCN(Cc2nsc(NCC(C)(C)c3ccc(F)cc3)n2)CC1 [tert-butyl 4-[(5-{[2-(4-fluorophenyl)-2-methylpropyl]amino}-1,2,4-thiadiazol-3-yl)methyl]piperazinecarboxylate]
7 | B (B=1-10 uM) | CC(C)(CNc1ncns1)c1ccc(F)cc1 [[2-(4-fluorophenyl)-2-methylpropyl]-1,2,4-thiadiazol-5-ylamine]
8 | D (D=>20 uM) | CC(Cc1ccc(Cl)cc1)Nc1nc(Cc2ccc(F)cc2)ns1 (stereo not drawn) [[2-(4-chlorophenyl)-isopropyl]{3-[(4-fluorophenyl)methyl](1,2,4-thiadiazol-5-yl)}amine]
9 | C (C=10-20 uM) | NC(=O)c1cccc(-c2nsc(NCCc3ccccc3)n2)c1 [3-{5-[(2-phenylethyl)amino]-1,2,4-thiadiazol-3-yl}benzamide]
10 | A (A=<1 uM) | CC(C)(CNc1nc(Cc2ccc(F)cc2)ns1)c1ccc(Cl)cc1 [[2-(4-chlorophenyl)-2-methylpropyl]{3-[(4-fluorophenyl)methyl](1,2,4-thiadiazol-5-yl)}amine]
11 | D (D=>20 uM) | CN(CC(C)(C)c1ccc(F)cc1)c1nc(Cc2cccc(O)c2)ns1 [3-[(5-{[2-(4-fluorophenyl)-2-methylpropyl]methylamino}-1,2,4-thiadiazol-3-yl)methyl]phenol]
12 | D (D=>20 uM) | CN(CCO)c1nsc(NCC(C)(C)c2ccc(F)cc2)n1
13 | A (A=<1 uM) | C[C@H](CNc1nc(-c2cccc(C(N)=O)c2)ns1)c1ccc(F)cc1 [3-(5-{[(2S)-2-(4-fluorophenyl)propyl]amino}-1,2,4-thiadiazol-3-yl)benzamide]
14 | B (B=1-10 uM) | Fc1ccc(Cc2nsc(NCCc3ccc(Cl)cc3)n2)cc1 [[2-(4-chlorophenyl)ethyl]{3-[(4-fluorophenyl)methyl](1,2,4-thiadiazol-5-yl)}amine]
15 | D (D=>20 uM) | CC(C)(CNc1nc(N2CCOCC2)ns1)c1ccc(F)cc1 [[2-(4-fluorophenyl)-2-methylpropyl](3-morpholin-4-yl(1,2,4-thiadiazol-5-yl))amine]
16 | D (D=>20 uM) | Nc1ccc(CCNc2nc(Cc3ccc(F)cc3)ns2)cc1 [[2-(4-aminophenyl)ethyl]{3-[(4-fluorophenyl)methyl](1,2,4-thiadiazol-5-yl)}amine]
17 | D (D=>20 uM) | Cc1csc(CCNc2nc(Cc3ccc(F)cc3)ns2)n1 [{3-[(4-fluorophenyl)methyl](1,2,4-thiadiazol-5-yl)}[2-(4-methyl(1,3-thiazol-2-yl))ethyl]amine]
18 | A (A=<1 uM) | CC(C)(CNc1nc(-c2ccc3c(N)n[nH]c3c2)ns1)c1ccc(F)cc1 [[3-(3-amino(1H-indazol-6-yl))(1,2,4-thiadiazol-5-yl)][2-(4-fluorophenyl)-2-methylpropyl]amine]
19 | B (B=1-10 uM) | CC(C)(CNc1nc(-c2ccccn2)ns1)c1ccc(F)cc1 [[2-(4-fluorophenyl)-2-methylpropyl](3-(2-pyridyl)(1,2,4-thiadiazol-5-yl))amine]
20 | D (D=>20 uM) | CC(C)(CNc1nc(CCN2CCC(O)CC2)ns1)c1ccc(F)cc1 [1-[2-(5-{[2-(4-fluorophenyl)-2-methylpropyl]amino}-1,2,4-thiadiazol-3-yl)ethyl]piperidin-4-ol]

Same assay, conditions: Table 3; concentration at which the compound increased enzymatic activity by 40%; calcium at pCa25

Row | Mean AC1.4 | SMILES
21 | A (A=<1 uM) | Cc1ccc(Br)cc1-c1nnc(NC[C@]2(c3ncccc3F)C[C@H](F)C2)s1 [5-(5-bromo-2-methylphenyl)-N-(((trans)-3-fluoro-1-(3-fluoropyridin-2-yl)cyclobutyl)methyl)-1,3,4-thiadiazol-2-amine]
22 | B (B=1-10 uM) | N#Cc1cccc(-c2nnc(NC[C@]3(c4ncccc4F)C[C@@H](F)C3)s2)c1 [3-(5-(((cis)3-fluoro-1-(3-fluoropyridin-2-yl)cyclobutyl)methylamino)-1,3,4-thiadiazol-2-yl)benzonitrile]
23 | B (B=1-10 uM) | Fc1cccnc1C1(CNc2nnc(C3CCCC3)s2)CCC1 [5-cyclopentyl-N-((1-(3-fluoropyridin-2-yl)cyclobutyl)methyl)-1,3,4-thiadiazol-2-amine]
24 | A (A=<1 uM) | Fc1ccc(Br)cc1-c1nnc(NC[C@]2(c3ncccc3F)C[C@H](F)C2)s1 [5-(5-bromo-2-fluorophenyl)-N-(((trans)-3-fluoro-1-(3-fluoropyridin-2-yl)cyclobutyl)methyl)-1,3,4-thiadiazol-2-amine]

Same assay, conditions: Table 4; concentration at which the compound increased enzymatic activity by 40%; calcium at pCa25

Row | Mean AC1.4 | SMILES
25 | C (C=10-20 uM) | CC(C)(CNc1nc2c(C(N)=O)cccc2s1)c1ccc(F)cc1 [2-(2-(4-fluorophenyl)-2-methylpropylamino)benzo[d] thiazole-4-carboxamide]
26 | B (B=1-10 uM) | CC(C)(CNc1nc2cccc(Cl)c2s1)c1ccc(F)cc1 [7-chloro-N-(2-(4-fluorophenyl)-2-methylpropyl)benzo[d]thiazol-2-amine]
27 | A (A=<1 uM) | CC(C)(CNc1nc2ccc(C(N)=O)cc2s1)c1ccc(F)cc1 [2-(2-(4-fluorophenyl)-2-methylpropylamino)benzo[d] thiazole-6-carboxamide]
28 | B (B=1-10 uM) | NC(=O)c1ccc(Cl)c2nc(NC[C@]3(c4ncccc4F)C[C@H](F)C3)sc12 [4-chloro-2-((3-fluoro-1-(3-fluoropyridin-2-yl)cyclobutyl)methylamino)benzo[d] thiazole-7-carboxamide]
29 | D (D=>20 uM) | NC(=O)c1cccc2nc(NC[C@]3(c4ncccc4F)C[C@H](F)C3)sc12 [2-((3-fluoro-1-(3-fluoropyridin-2-yl)cyclobutyl)methylamino)benzo[d] thiazole-7-carboxamide]
30 | A (A=<1 uM) | CC(C)(CNc1nc2c(Cl)cc(C#N)cc2s1)c1ccc(F)cc1 [4-chloro-2-(2-(4-fluorophenyl)-2-methylpropylamino)benzo[d] thiazole-6-carbonitrile]
31 | C (C=10-20 uM) | NC(=O)c1ccc2sc(NC[C@]3(c4ncccc4F)C[C@H](F)C3)nc2c1 [2-((3-fluoro-1-(3-fluoropyridin-2-yl)cyclobutyl)methylamino)benzo[d] thiazole-5-carboxamide]
32 | B (B=1-10 uM) | CC(C)(CNc1nc2cc(C#N)ccc2s1)c1ccc(F)cc1 [2-(2-(4-fluorophenyl)-2-methylpropylamino)benzo[d] thiazole-5-carbonitrile]

Same assay, conditions: Table 5; concentration at which the compound increased enzymatic activity by 40%; calcium at pCa25

Row | Mean AC1.4 | SMILES
33 | A (A=<1 uM) | Fc1cccnc1C1(CNc2ncc(-c3ccccc3)s2)CCC1 [N-((1-(3-fluoropyridin-2-yl)cyclobutyl)methyl)-5-phenylthiazol-2-amine]
34 | D (D=>20 uM) | Fc1cccnc1C1(CNc2noc(-c3ccccc3)n2)CCC1 [N-((1-(3-fluoropyridin-2-yl)cyclobutyl)methyl)-5-phenyl-1,2,4-oxadiazol-3-amine]
35 | D (D=>20 uM) | N#Cc1ccc(F)c(-c2nnc(NC3(c4ncccc4F)CCC3)[nH]2)c1 [4-fluoro-3-(5-(1-(3-fluoropyridin-2-yl)cyclobutylamino)-4H-1,2,4-triazol-3-yl)benzonitrile]
36 | D (D=>20 uM) | Cn1nc(NC2(c3ncccc3F)CCC2)nc1-c1cc(C#N)ccc1F [4-fluoro-3-(5-(1-(3-fluoropyridin-2-yl)cyclobutylamino)-2-methyl-2H-1,2,4-triazol-3-yl)benzonitrile]
